The source of these data is US20070021434A1, “NON-NUCLEOSIDE ANTI-HEPACIVIRUS AGENTS AND USES THEREOF” (Migenix Inc., priority 2005, published 2007).

Molecules are shown by their SMILES. Peptide text beside a SMILES is read from it. * marks the point of attachment. Fmoc = O=C(OCC1c2ccccc2-c2ccccc21)*; Boc = CC(C)(C)OC(=O)*

The term IC50 denotes the concentration at which inhibition is half-maximal. Higher therefore signals weaker potency in that assay.

For the test, the target named is HCV RdRp (NS5B) (UniProt P26663). It counts as biochemical, hepatitis C virus.
Chain of HCV RdRp (NS5B) (P26663 whole entry, looked up): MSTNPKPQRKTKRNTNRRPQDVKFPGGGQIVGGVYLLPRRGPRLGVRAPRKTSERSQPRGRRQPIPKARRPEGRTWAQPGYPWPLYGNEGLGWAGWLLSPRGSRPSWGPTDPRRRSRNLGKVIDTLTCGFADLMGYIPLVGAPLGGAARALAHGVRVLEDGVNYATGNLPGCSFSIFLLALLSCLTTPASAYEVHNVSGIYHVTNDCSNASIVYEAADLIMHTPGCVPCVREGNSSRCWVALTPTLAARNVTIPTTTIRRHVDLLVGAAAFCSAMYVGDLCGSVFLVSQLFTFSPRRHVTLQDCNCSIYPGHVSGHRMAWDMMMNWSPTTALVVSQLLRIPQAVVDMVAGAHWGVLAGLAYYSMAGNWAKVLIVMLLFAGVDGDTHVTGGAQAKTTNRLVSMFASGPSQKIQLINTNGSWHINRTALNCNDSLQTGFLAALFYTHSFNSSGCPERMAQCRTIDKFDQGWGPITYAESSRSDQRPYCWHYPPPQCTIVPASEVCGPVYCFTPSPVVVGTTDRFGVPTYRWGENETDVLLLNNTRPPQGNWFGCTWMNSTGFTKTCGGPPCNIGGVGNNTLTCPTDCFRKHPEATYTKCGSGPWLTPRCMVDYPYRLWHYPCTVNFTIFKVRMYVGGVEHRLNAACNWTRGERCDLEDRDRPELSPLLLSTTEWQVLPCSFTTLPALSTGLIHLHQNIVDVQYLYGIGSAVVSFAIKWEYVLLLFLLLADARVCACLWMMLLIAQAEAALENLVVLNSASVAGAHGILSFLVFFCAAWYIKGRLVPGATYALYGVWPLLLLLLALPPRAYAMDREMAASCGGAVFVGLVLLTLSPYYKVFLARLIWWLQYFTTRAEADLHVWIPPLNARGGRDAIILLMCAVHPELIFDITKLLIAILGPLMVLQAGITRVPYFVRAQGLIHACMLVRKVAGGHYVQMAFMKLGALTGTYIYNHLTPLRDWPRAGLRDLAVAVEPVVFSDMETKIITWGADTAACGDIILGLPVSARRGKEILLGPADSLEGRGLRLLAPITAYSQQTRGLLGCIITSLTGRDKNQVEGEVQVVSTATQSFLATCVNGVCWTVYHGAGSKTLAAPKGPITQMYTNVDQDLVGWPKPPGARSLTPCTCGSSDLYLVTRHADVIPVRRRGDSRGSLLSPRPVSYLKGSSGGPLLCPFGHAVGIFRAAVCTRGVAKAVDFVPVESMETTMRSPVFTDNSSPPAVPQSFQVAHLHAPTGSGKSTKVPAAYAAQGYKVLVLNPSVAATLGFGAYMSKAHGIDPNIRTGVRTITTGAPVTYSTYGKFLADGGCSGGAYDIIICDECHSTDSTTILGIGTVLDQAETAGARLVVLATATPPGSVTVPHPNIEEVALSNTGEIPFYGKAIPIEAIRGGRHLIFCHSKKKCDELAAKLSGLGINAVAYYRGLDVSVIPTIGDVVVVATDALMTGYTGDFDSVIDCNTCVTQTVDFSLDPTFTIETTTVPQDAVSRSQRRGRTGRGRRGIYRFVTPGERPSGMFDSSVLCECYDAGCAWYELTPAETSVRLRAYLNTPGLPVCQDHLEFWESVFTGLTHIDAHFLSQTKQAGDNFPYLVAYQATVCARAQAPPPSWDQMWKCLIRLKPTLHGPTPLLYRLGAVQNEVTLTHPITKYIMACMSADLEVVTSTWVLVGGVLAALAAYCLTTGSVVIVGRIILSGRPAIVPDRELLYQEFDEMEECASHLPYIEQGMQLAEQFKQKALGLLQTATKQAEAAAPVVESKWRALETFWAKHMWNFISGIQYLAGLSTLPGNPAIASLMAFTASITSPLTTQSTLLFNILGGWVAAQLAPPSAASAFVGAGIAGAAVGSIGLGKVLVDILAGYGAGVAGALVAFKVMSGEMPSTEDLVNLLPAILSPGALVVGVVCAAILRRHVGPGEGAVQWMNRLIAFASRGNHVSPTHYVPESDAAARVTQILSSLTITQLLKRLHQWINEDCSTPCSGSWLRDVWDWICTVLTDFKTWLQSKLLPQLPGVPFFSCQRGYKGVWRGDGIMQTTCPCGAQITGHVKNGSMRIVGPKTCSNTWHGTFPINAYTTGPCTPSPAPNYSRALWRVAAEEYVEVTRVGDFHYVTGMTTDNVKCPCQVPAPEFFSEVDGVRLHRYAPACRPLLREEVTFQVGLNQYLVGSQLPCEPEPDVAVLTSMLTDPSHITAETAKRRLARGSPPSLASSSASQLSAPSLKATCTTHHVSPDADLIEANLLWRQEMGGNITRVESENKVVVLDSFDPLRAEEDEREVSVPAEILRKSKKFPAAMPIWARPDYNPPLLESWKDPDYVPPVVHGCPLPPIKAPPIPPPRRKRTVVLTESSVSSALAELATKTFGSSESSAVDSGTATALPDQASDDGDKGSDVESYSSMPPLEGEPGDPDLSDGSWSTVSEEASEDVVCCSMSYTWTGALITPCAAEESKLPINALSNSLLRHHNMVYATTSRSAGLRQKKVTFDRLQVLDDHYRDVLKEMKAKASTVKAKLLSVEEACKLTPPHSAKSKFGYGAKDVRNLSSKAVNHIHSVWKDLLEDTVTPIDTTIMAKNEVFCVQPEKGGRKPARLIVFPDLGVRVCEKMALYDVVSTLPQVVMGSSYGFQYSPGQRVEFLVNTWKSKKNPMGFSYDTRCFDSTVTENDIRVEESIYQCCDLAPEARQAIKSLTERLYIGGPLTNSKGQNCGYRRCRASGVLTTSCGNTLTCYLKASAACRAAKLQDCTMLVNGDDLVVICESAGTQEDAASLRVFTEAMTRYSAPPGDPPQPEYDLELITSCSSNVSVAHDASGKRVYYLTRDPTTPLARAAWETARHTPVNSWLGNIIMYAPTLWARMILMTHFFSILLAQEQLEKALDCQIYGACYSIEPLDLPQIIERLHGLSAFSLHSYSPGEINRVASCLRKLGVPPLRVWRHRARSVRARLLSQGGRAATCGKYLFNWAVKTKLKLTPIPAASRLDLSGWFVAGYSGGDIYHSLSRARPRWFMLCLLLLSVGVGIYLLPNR
Regarding `COC(=O)C(Cc1c[nH]c2ccccc12)NC(=O)[C@H](CCCCN)NC(=O)OCC1c2ccccc2-c2ccccc21` (mixture of isomers) [Compound 55, (+/−)-2-[6-AMINO-2-(S)-((9H-FLUOREN-9-YLMETHOXYCARBONYL)AMINO)-HEXANOYL-AMINO]-3-(1H-INDOL-3-YL)-PROPIONIC ACID METHYL ESTER], the IC50 was more than 50 µM.

On to `O=C(Nc1ccc(C2CCCCC2)cc1)C1CNCCN1C(=O)OCC1c2ccccc2-c2ccccc21` (racemic) [Compound 156, (+/−)-2-(4-CYCLOHEXYL-PHENYLCARBAMOYL)-PIPERAZINE-1-CARBOXYLIC ACID 9H-FLUOREN-9-YLMETHYL ESTER], for which the IC50 is more than 50 µM.

`Cc1ccc(NC(=O)CC2CN(C(=O)CN)CCN2C(=O)OCC2c3ccccc3-c3ccccc32)cc1` (racemic) [Compound 182, (+/−)-4-(2-AMINO-ACETYL)-2-(P-TOLYLCARBAMOYL-METHYL)-PIPERAZINE-1-CARBOXYLIC ACID 9H-FLUOREN-9-YLMETHYL ESTER] came in with an IC50 of more than 50 µM.

On to `Cc1ccc(NC(=O)C2CN(C(=O)CN)CCN2C(=O)Nc2ccc(OCc3ccccc3)cc2)cc1` (racemic) [Compound 308, (±)-4-(2-AMINO-ACETYL)-PIPERAZINE-1,2-DICARBOXYLIC ACID 1-[(4-BENZYLOXY-PHENYL)-AMIDE]2-P-TOLYLAMIDE], for which the concentration for half-maximal inhibition (IC50) was more than 50 µM.

With `NC(Cc1ccccc1)C(=O)Nc1ccc(CN(C(=O)c2ccco2)C2CCCCC2)cc1` (stereo in doubt) [Compound 11, (R)-FURAN-2-CARBOXYLIC ACID [4-(2-AMINO-3-PHENYL-PROPIONYLAMINO)-BENZYL]-CYCLOHEXYL-AMIDE], the half-maximal inhibitory concentration (IC50) is more than 50 µM.

In turn, `NCCCCC(NC(=O)OCC1c2ccccc2-c2ccccc21)C(=O)Nc1ccccc1` (stereo in doubt) [Compound 19, (S)-(5-AMINO-1-PHENYLCARBAMOYL-PENTYL)-CARBAMIC ACID 9H-FLUOREN-9-YLMETHYL ESTER] showed an IC50 of more than 50 µM.

Compound `NCCCCC(NC(=O)OCC1c2ccccc2-c2ccccc21)C(=O)NCc1ccccc1` (stereo in doubt) [Compound 21, (S)-(5-AMINO-1-BENZYLCARBAMOYL-PENTYL)-CARBAMIC ACID 9H-FLUOREN-9-YLMETHYL ESTER] came in with an IC50 of more than 50 µM.

`NCCCCC(NC(=O)OCC1c2ccccc2-c2ccccc21)C(=O)NC1CCCCC1` (stereo in doubt) [Compound 22, (S)-(5-AMINO-1-CYCLOHEXYLCARBAMOYL-PENTYL)-CARBAMIC ACID 9H-FLUOREN-9-YLMETHYL ESTER] gave a half-inhibitory concentration (IC50) of 10 to 50 µM.

`NCCCCC(NC(=O)Cc1cccc2ccccc12)C(=O)Nc1ccc(CN(C(=O)c2ccco2)C2CCCCC2)cc1` (stereo in doubt) [Compound 25, (S)-FURAN-2-CARBOXYLIC ACID {4-[6-AMINO-2-(2-NAPHTHALEN-1-YL-ACETYLAMINO)-HEXANOYLAMINO]-BENZYL}-CYCLOHEXYL-AMIDE]: the IC50 lay within 10 to 50 µM.

In turn, `COC(=O)c1ccc(C(=O)NC(C)(C)C(=O)Nc2ccc(CN(C(=O)c3ccco3)C3CCCCC3)cc2)cc1` [Compound 3, N-[1-(4-{[CYCLOHEXYL-(FURAN-2-CARBONYL)-AMINO]-METHYL}-PHENYLCARBAMOYL)-1-METHYL-ETHYL]-TERE[…] METHYL ESTER] showed a 50% inhibitory concentration (IC50) of more than 50 µM.

`CC(C)(NC(=O)c1ccc(C(=O)O)cc1)C(=O)Nc1ccc(CN(C(=O)c2ccco2)C2CCCCC2)cc1` [Compound 4, N-[1-(4-{[CYCLOHEXYL-(FURAN-2-CARBONYL)-AMINO]-METHYL}-PHENYLCARBAMOYL)-1-METHYL-ETHYL]-TERE[…]] had an IC50 of more than 50 µM.

For `C=CCOC(=O)NCCCC[C@H](N)C(=O)Nc1ccc(CN(C(=O)c2ccco2)C2CCCCC2)cc1` [Compound 5, (S)-[5-AMINO-5-(4-{[CYCLOHEXYL-(FURAN-2-CARBONYL)-AMINO]-METHYL}-PHENYLCARBAMOYL)-PENTYL]-CARBAMIC ACID ALLYL ESTER], the IC50 was more than 50 µM.

The compound `NCCCC[C@H](NC(=O)OCC1c2ccccc2-c2ccccc21)C(=O)Nc1ccc(CN(C(=O)c2ccco2)C2CCCCC2)cc1` [Compound 6, (S)-[5-AMINO-1-(4-{[CYCLOHEXYL-(FURAN-2-CARBONYL)-AMINO]-METHYL}-PHENYLCARBAMOYL)-PENTYL]-CARBAMIC ACID 9H-FLUOREN-9-YL METHYL ESTER] gave an IC50 of less than 10 µM.

For the compound `NCCCC[C@H](N)C(=O)Nc1ccc(CN(C(=O)c2ccco2)C2CCCCC2)cc1` [Compound 7, (S)-FURAN-2-CARBOXYLIC ACID CYCLOHEXYL-[4-(2,6-DIAMINO-HEXANOYLAMINO)-BENZYL]-AMIDE], the IC50 is more than 50 µM.

In the case of `CC(C)(C)Oc1ccc(C[C@H](N)C(=O)Nc2ccc(CN(C(=O)c3ccco3)C3CCCCC3)cc2)cc1` [Compound 8, (S)-FURAN-2-CARBOXYLIC ACID {4-[2-AMINO-3-(4-TERT-BUTOXY-PHENYL)-PROPIONYLAMINO]-BENZYL}-CYCLOHEXYL-AMIDE], the IC50 is more than 50 µM.

Compound `COc1ccc(C[C@H](N)C(=O)Nc2ccc(CN(C(=O)c3ccco3)C3CCCCC3)cc2)cc1` [Compound 9, (S)-FURAN-2-CARBOXYLIC ACID {4-[2-AMINO-3-(4-METHOXY-PHENYL)-PROPIONYLAMINO]-BENZYL}-CYCLOHEXYL-AMIDE] yielded an IC50 of more than 50 µM.

Take `N[C@@H](Cc1ccccc1)C(=O)Nc1ccc(CN(C(=O)c2ccco2)C2CCCCC2)cc1` [Compound 10, (S)-FURAN-2-CARBOXYLIC ACID [4-(2-AMINO-3-PHENYL-PROPIONYLAMINO) -BENZYL]-CYCLOHEXYL-AMIDE]: the half-maximal inhibitory concentration (IC50) was more than 50 µM.

`C[C@H](N)C(=O)Nc1ccc(CN(C(=O)c2ccco2)C2CCCCC2)cc1` [Compound 12, (S)-FURAN-2-CARBOXYLIC ACID [4-(2-AMINO-PROPIONYLAMINO)-BENZYL]-CYCLOHEXYL-AMIDE] came in with an IC50 of more than 50 µM.

`C[C@@H](N)C(=O)Nc1ccc(CN(C(=O)c2ccco2)C2CCCCC2)cc1` [Compound 13, (R)-FURAN-2-CARBOXYLIC ACID [4-(2-AMINO-PROPIONYLAMINO)-BENZYL]-CYCLOHEXYL-AMIDE]: the IC50 is more than 50 µM.

Compound `N[C@@H](CCNC(=O)OCC1c2ccccc2-c2ccccc21)C(=O)Nc1ccc(CN(C(=O)c2ccco2)C2CCCCC2)cc1` [Compound 14, (S)-[3-AMINO-3-(4-{[CYCLOHEXYL-(FURAN-2-CARBONYL)-AMINO]-METHYL}-PHENYLCARBAMOYL)-PROPYL]-CARBAMIC ACID 9H-FLUOREN-9-YLMETHYL ESTER] returned an IC50 of 10 to 50 µM.

For the compound `NCCC[C@H](NC(=O)OCC1c2ccccc2-c2ccccc21)C(=O)Nc1ccc(CN(C(=O)c2ccco2)C2CCCCC2)cc1` [Compound 15, (S)-[4-AMINO-1-(4-{[CYCLOHEXYL-(FURAN-2-CARBONYL)-AMINO]-METHYL}-PHENYLCARBAMOYL)-BUTYL]-CARBAMIC ACID 9H-FLUOREN-9-YLMETHYL ESTER], the half-maximal inhibitory concentration (IC50) lay within 10 to 50 µM.

`NCCC[C@@H](NC(=O)OCC1c2ccccc2-c2ccccc21)C(=O)Nc1ccc(CN(C(=O)c2ccco2)C2CCCCC2)cc1` [Compound 16, (R)-[4-AMINO-1-(4-{[CYCLOHEXYL-(FURAN-2-CARBONYL)-AMINO]-METHYL}-PHENYLCARBAMOYL)-BUTYL]-CARBAMIC ACID 9H-FLUOREN-9-YLMETHYL ESTER] displayed a half-maximal inhibitory concentration (IC50) of less than 10 µM.

Compound `N[C@@H](CNC(=O)OCC1c2ccccc2-c2ccccc21)C(=O)Nc1ccc(CN(C(=O)c2ccco2)C2CCCCC2)cc1` [Compound 17, (S)-[2-AMINO-2-(4-{[CYCLOHEXYL-(FURAN-2-CARBONYL)-AMINO]-METHYL}-PHENYLCARBAMOYL)-ETHYL]-CARBAMIC ACID 9H-FLUOREN-9-YLMETHYL ESTER] gave a concentration for half-maximal inhibition (IC50) of 10 to 50 µM.

For the compound `O=C(CNC(=O)OCC1c2ccccc2-c2ccccc21)Nc1ccc(CN(C(=O)c2ccco2)C2CCCCC2)cc1` [Compound 18, [(4-{[CYCLOHEXYL-(FURAN-2-CARBONYL)-AMINO]-METHYL}-PHENYLCARBAMOYL)-METHYL]-CARBAMIC ACID 9H-FLUOREN-9-YLMETHYL ESTER], the half-inhibitory concentration (IC50) is more than 50 µM.

`Cc1ccc(NC(=O)[C@@H](CCCCN)NC(=O)OCC2c3ccccc3-c3ccccc32)cc1` [Compound 20, (S)-(5-AMINO-1-P-TOLYLCARBAMOYL-PENTYL)-CARBAMIC ACID 9H-FLUOREN-9-YLMETHYL ESTER] came in with an IC50 of 10 to 50 µM.

Compound `NCCCC[C@H](NC(=O)[C@@H](N)Cc1c[nH]c2ccccc12)C(=O)Nc1ccc(CN(C(=O)c2ccco2)C2CCCCC2)cc1` [Compound 23, (S)-FURAN-2-CARBOXYLIC ACID (4-{6-AMINO-2-[2-(S)-AMINO-3-(1H-INDOL-3-YL)-PROPIONYLAMINO]-HEXANOYLAMINO}-BENZYL)-CYCLOHEXYL-AMIDE] came in with an IC50 of 10 to 50 µM.

`NCCCC[C@H](NC(=O)c1cccc2ccccc12)C(=O)Nc1ccc(CN(C(=O)c2ccco2)C2CCCCC2)cc1` [Compound 24, (S)-FURAN-2-CARBOXYLIC ACID (4-{6-AMINO-2-[(NAPHTHALENE-1-CARBONYL)-AMINO]-HEXANOYLAMINO}-BENZYL)-CYCLOHEXYL-AMIDE] showed an IC50 of 10 to 50 µM.

As for `NCCCC[C@H](NC(=O)c1ccccc1)C(=O)Nc1ccc(CN(C(=O)c2ccco2)C2CCCCC2)cc1` [Compound 27, (S)-FURAN-2-CARBOXYLIC ACID [4-(6-AMINO-2-BENZOYLAMINO-HEXANOYLAMINO)-BENZYL]-CYCLOHEXYL-AMIDE], the IC50 was more than 50 µM.

Turning to `CC[C@H](NC(=O)OCC1c2ccccc2-c2ccccc21)C(=O)Nc1ccc(CN(C(=O)c2ccco2)C2CCCCC2)cc1` [Compound 28, (S)-[1-(4-{[CYCLOHEXYL-(FURAN-2-CARBONYL)-AMINO]-METHYL}-PHENYLCARBAMOYL)-PROPYL]-CARBAMIC ACID 9H-FLUOREN-9-YLMETHYL ESTER], the IC50 was more than 50 µM.

Consider `O=C(N[C@@H](Cc1ccccc1)C(=O)Nc1ccc(CN(C(=O)c2ccco2)C2CCCCC2)cc1)OCC1c2ccccc2-c2ccccc21` [Compound 29, (S)-[1-(4-{[CYCLOHEXYL-(FURAN-2-CARBONYL)-AMINO]-METHYL}-PHENYL CARBAMOYL)-2-PHENYL-ETHYL]-CARBAMIC ACID 9H-FLUOREN-9-YLMETHYL ESTER], for which the IC50 is more than 50 µM.

`COC(=O)[C@H](Cc1c[nH]c2ccccc12)NC(=O)[C@H](CCCCNC(=O)OC(C)(C)C)NC(=O)OCC1c2ccccc2-c2ccccc21` [Compound 30, (S)-2-[6-TERT-BUTOXYCARBONYLAMINO-2-(S)-((9H-FLUOREN-9-YLMETHOXYCARBONYL)AMINO)-HEXANOYL-AMINO]-3-(1H-INDOL-3-YL)-PROPIONIC ACID METHYL ESTER] (Fmoc-Lys(Boc)-Trp-OMe) yielded an IC50 of more than 50 µM.
